# Assay results: the NIST ThermoML archive (doi:10.1016/j.jct.2006.11.003)
# Numbers after ± are expanded uncertainties.
# Columns and labels:
# [1] = refractive index (Na D-line) (dimensionless); conditions: 298.15 K; 101.33 kPa; Liquid; Standard Abbe refractometry
# [2] = 101 kPa, Liquid
# [3] = xn = mol fraction of the nth substance listed; conditions: 101 kPa, Liquid, x2 = 0
structure (smiles),measurement,setting,value
"Cc1ccccc1C [1,2-dimethylbenzene]",refractive index,[1],1.5057 ± 0.0007
same,mass density,[2]; 293.15 K,879.84 ± 0.64 kg/m3
same,mass density,[2]; 298.15 K,875.73 ± 0.65 kg/m3
same,mass density,[2]; 303.15 K,871.48 ± 0.66 kg/m3
same,mass density,[2]; 313.15 K,863.03 ± 0.69 kg/m3
same,mass density,[2]; 323.15 K,854.51 ± 0.72 kg/m3
same,mass density,[2]; 333.15 K,845.91 ± 0.74 kg/m3
same,mass density,[2]; 343.15 K,837.23 ± 0.77 kg/m3
same,mass density,[2]; 353.15 K,828.47 ± 0.8 kg/m3
"Cc1cccc(C)c1 [1,3-dimethylbenzene]",refractive index,[1],1.4973 ± 0.0008
same,mass density,[2]; 293.15 K,864.31 ± 1.3 kg/m3
same,mass density,[2]; 298.15 K,859.83 ± 1.3 kg/m3
same,mass density,[2]; 303.15 K,855.64 ± 1.3 kg/m3
same,mass density,[2]; 313.15 K,846.9 ± 1.3 kg/m3
same,mass density,[2]; 323.15 K,838.09 ± 1.3 kg/m3
same,mass density,[2]; 333.15 K,829.22 ± 1.3 kg/m3
same,mass density,[2]; 343.15 K,820.29 ± 1.4 kg/m3
same,mass density,[2]; 353.15 K,811.29 ± 1.4 kg/m3
"Cc1ccc(C)cc1 [1,4-dimethylbenzene]",refractive index,[1],1.4958 ± 0.0008
same,mass density,[2]; 293.15 K,860.95 ± 0.83 kg/m3
same,mass density,[2]; 298.15 K,856.58 ± 0.84 kg/m3
same,mass density,[2]; 303.15 K,852.3 ± 0.85 kg/m3
same,mass density,[2]; 323.15 K,834.76 ± 0.9 kg/m3
same,mass density,[2]; 333.15 K,825.86 ± 1.2 kg/m3
same,mass density,[2]; 343.15 K,816.87 ± 0.95 kg/m3
same,mass density,[2]; 353.15 K,807.81 ± 0.98 kg/m3
CN1CCCC1=O [N-methylpyrrolidone],refractive index,[1],1.4677 ± 0.0007
same,mass density,[2]; 293.15 K,1032.66 ± 0.48 kg/m3
same,mass density,[2]; 298.15 K,1028.25 ± 0.46 kg/m3
same,mass density,[2]; 303.15 K,1023.42 ± 0.44 kg/m3
same,mass density,[2]; 313.15 K,1014.27 ± 0.4 kg/m3
same,mass density,[2]; 323.15 K,1005.62 ± 0.37 kg/m3
same,mass density,[2]; 333.15 K,996.28 ± 0.36 kg/m3
same,mass density,[2]; 343.15 K,987.39 ± 0.4 kg/m3
same,mass density,[2]; 353.15 K,978.62 ± 0.43 kg/m3
CN1CCCC1=O [N-methylpyrrolidone] + Cc1ccc(C)cc1,mass density,[3]; 293.15 K,1032.66 ± 0.48 kg/m3
same,mass density,[3]; 303.15 K,1023.42 ± 0.44 kg/m3
same,mass density,[3]; 313.15 K,1014.27 ± 0.4 kg/m3
same,mass density,[3]; 323.15 K,1005.62 ± 0.37 kg/m3
same,mass density,[3]; 333.15 K,996.28 ± 0.36 kg/m3
same,mass density,[3]; 343.15 K,987.39 ± 0.4 kg/m3
same,mass density,[3]; 353.15 K,978.62 ± 0.43 kg/m3
CN1CCCC1=O [N-methylpyrrolidone] + Cc1cccc(C)c1,mass density,[3]; 293.15 K,1032.66 ± 0.48 kg/m3
same,mass density,[3]; 303.15 K,1023.42 ± 0.44 kg/m3
same,mass density,[3]; 313.15 K,1014.27 ± 0.4 kg/m3
same,mass density,[3]; 323.15 K,1005.62 ± 0.37 kg/m3
same,mass density,[3]; 333.15 K,996.28 ± 0.36 kg/m3
same,mass density,[3]; 343.15 K,987.39 ± 0.4 kg/m3
same,mass density,[3]; 353.15 K,978.62 ± 0.43 kg/m3
CN1CCCC1=O [N-methylpyrrolidone] + Cc1ccccc1C,mass density,[3]; 293.15 K,1032.66 ± 0.48 kg/m3
same,mass density,[3]; 303.15 K,1023.42 ± 0.44 kg/m3
same,mass density,[3]; 313.15 K,1014.27 ± 0.4 kg/m3
same,mass density,[3]; 323.15 K,1005.62 ± 0.37 kg/m3
same,mass density,[3]; 333.15 K,996.28 ± 0.36 kg/m3
same,mass density,[3]; 343.15 K,987.39 ± 0.4 kg/m3
same,mass density,[3]; 353.15 K,978.62 ± 0.43 kg/m3
